Source: US20060069132A1, “Azolecarboxamide herbicides” (priority 2004, published 2006)

Columns and labels:
Experiment in all cases: Test E pre-/postemergence herbicide test
Details in all cases: Preemergence
common chickweed = format: in vivo, Stellaria media
From the text: (§1) Seeds of plant species selected from bipinnate beggarticks (Bidens bipinnata L.), hairy beggarticks (Bidens radiata Thuill.), bermudagrass (Cynodon dactylon (L.) Pers.), Surinam grass (Urochloa decumbens (Staph) R. D. Webster, previously named Brachiaria decumbens Stapf), large crabgrass (Digitaria sanguinalis (L.) Scop.), green foxtail (Setaria viridis (L.) P. Beauv.), goosegrass (Eleusine indica (L.) Gaertn.), johnsongrass (Sorghum halepense (L.) Pers.), kochia (Kochia scoparia (L.) Schrad.), pitted morningglory (Ipomoea lacunosa L.), purple nutsedge (Cyperus rotundus L.), common ragweed (Ambrosia elatior L.), mustard (Brassica nigra (L.) W. D. J. Koch), guineagrass (Panicum maximum Jacq.), dallisgrass (Paspalum dilatatum Poir.), barnyardgrass (Echinochloa crus-galli (L). P. Beauv.), southern sandbur (Cenchrus echinatus L.), common sowthistle (Sonchus oleraceous L.), prickly sida (Sida spinosa L.), Italian ryegrass (Lolium multiflorum Lam.), common purslane (Portulaca oleracea L.), broadleaf signalgrass (Brachiaria platyphylla (Griseb.) Nash), common groundsel (Senecio vulgaris L.), common chickweed (Stellaria media (L.) Vill/Cyr.), tropical spiderwort (Commelina benghalensis L.), annual bluegrass (Poa annua L.), downy bromegrass (Bromus tectorum L.), itchgrass (Rottboellia cochinchinensis (L.) L.f.), quackgrass (Elytrigia repens (L.) Nevski), Canada horseweed (Erigeron Canadensis L.), field bindweed (Convolvulus arvensis L.), spotted spurge (Euphorbia maculata L.), common mallow (Malva sylvestris (=s silvestris) L.), and Russian thistle (Salsola kali L. ssp. Ruthenica (Iljin) Soo) were planted and treated preemergence with test chemicals formulated in a non-phytotoxic solvent mixture which included a surfactant.
(§2) At the same time, plants selected from these weed species were treated with postemergence applications of some of the test chemicals formulated in the same manner. Plants ranged in height from 2 to 18 cm (1- to 4-leaf stage) for postemergence treatments. Treated plants and controls were maintained in a greenhouse for 12 to 14 days, after which time all species were compared to controls and visually evaluated. Plant response ratings, summarized in Table E, are based on a scale of 0 to 100 where 0 is no effect and 100 is complete control. A dash (-) response means no test result.

tropical spiderwort = format: in vivo, Commelina benghalensis
From the text: as §1, §2

downy bromegrass = format: in vivo, Bromus tectorum
From the text: as §1, §2

goosegrass = format: in vivo, Eleusine indica
From the text: as §1, §2

green foxtail = format: in vivo, Setaria viridis
From the text: as §1, §2

Canada horseweed = format: in vivo, Erigeron Canadensis
From the text: as §1, §2

kochia = format: in vivo, Kochia scoparia
From the text: as §1, §2

purple nutsedge = format: in vivo, Cyperus rotundus
From the text: as §1, §2

field bindweed = format: in vivo, Convolvulus arvensis
From the text: as §1, §2

annual bluegrass = format: in vivo, Poa annua
From the text: as §1, §2

[1] = 125 g ai/ha, scale 0 (no effect) to 100 (complete control)
[2] = 250 g ai/ha, scale 0 (no effect) to 100 (complete control)
[3] = 500 g ai/ha, scale 0 (no effect) to 100 (complete control)

## CCNC(=O)c1cccc(NC(=O)c2cc(C(C)(C)C)nn2CC)n1 [Compound 144]
Common chickweed; 62 g ai/ha, scale 0 to 100
  Plant response rating, Chickweed: 50
Common chickweed; [1]
  Plant response rating, Chickweed: 90
Common chickweed; [2]
  Plant response rating, Chickweed: 95
Common chickweed; [3]
  Plant response rating, Chickweed: 95
Tropical spiderwort; 62 g ai/ha, scale 0 to 100
  Plant response rating, Spiderwort: 60
Tropical spiderwort; [1]
  Plant response rating, Spiderwort: 60
Tropical spiderwort; [2]
  Plant response rating, Spiderwort: 60
Tropical spiderwort; [3]
  Plant response rating, Spiderwort: 100
Downy bromegrass; 62 g ai/ha, scale 0 to 100
  Plant response rating, Bromegrass, Downy: 20
Downy bromegrass; [1]
  Plant response rating, Bromegrass, Downy: 50
Downy bromegrass; [2]
  Plant response rating, Bromegrass, Downy: 60
Downy bromegrass; [3]
  Plant response rating, Bromegrass, Downy: 80
goosegrass; 62 g ai/ha, scale 0 to 100
  Plant response rating, Goosegrass: 20
goosegrass; [1]
  Plant response rating, Goosegrass: 50
goosegrass; [2]
  Plant response rating, Goosegrass: 80
goosegrass; [3]
  Plant response rating, Goosegrass: 80
Green foxtail; 62 g ai/ha, scale 0 to 100
  Plant response rating, Foxtail, Green: 10
Green foxtail; [1]
  Plant response rating, Foxtail, Green: 50
Green foxtail; [2]
  Plant response rating, Foxtail, Green: 80
Green foxtail; [3]
  Plant response rating, Foxtail, Green: 90
Canada horseweed; 62 g ai/ha, scale 0 to 100
  Plant response rating, Horseweed: 70
Canada horseweed; [1]
  Plant response rating, Horseweed: 100
Canada horseweed; [2]
  Plant response rating, Horseweed: 100
Canada horseweed; [3]
  Plant response rating, Horseweed: 100
kochia; 62 g ai/ha, scale 0 to 100
  Plant response rating, Kochia: 0
kochia; [1]
  Plant response rating, Kochia: 60
kochia; [2]
  Plant response rating, Kochia: 90
kochia; [3]
  Plant response rating, Kochia: 90
Purple nutsedge; 62 g ai/ha, scale 0 to 100
  Plant response rating, Nutsedge, Purple: 0
Purple nutsedge; [1]
  Plant response rating, Nutsedge, Purple: 30
Purple nutsedge; [2]
  Plant response rating, Nutsedge, Purple: 30
Purple nutsedge; [3]
  Plant response rating, Nutsedge, Purple: 50
Field bindweed; 62 g ai/ha, scale 0 to 100
  Plant response rating, Bindweed, Field: 0
Field bindweed; [2]
  Plant response rating, Bindweed, Field: 50
Field bindweed; [3]
  Plant response rating, Bindweed, Field: 80
Annual bluegrass; 62 g ai/ha, scale 0 to 100
  Plant response rating, Bluegrass: 80
Annual bluegrass; [1]
  Plant response rating, Bluegrass: 90
Annual bluegrass; [2]
  Plant response rating, Bluegrass: 100
Annual bluegrass; [3]
  Plant response rating, Bluegrass: 100
